The supplement of paper PMC10307832

Legend:
Assay in all cases: relative viability (nuclei count vs DMSO), 5 days (fraction); higher = more cells survive
HCC-78 = test system: HCC-78
Summary of the method: (§1)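 Lung cancer cell lines in 1536-well plates were dosed by pin tool the day after seeding, either with one drug alone or with a fixed anchor-drug dose plus five library-drug doses (not always all listed) in √10 steps. After 5 days, cells were fixed and their nuclei stained in one step (final 0.05% Triton X-100, 1% formaldehyde, 1 ug/ml Hoechst), then counted on 4× images. Relative viability is the nuclei count in treated wells divided by that in vehicle wells. Values are medians of duplicate plates.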

NCI-H647 = test system: NCI-H647
Summary of the method: as §1

NCI-H650 = test system: NCI-H650
Summary of the method: as §1

H3255 = test system: H3255
Summary of the method: as §1

COR-L 105 = test system: COR-L 105
Summary of the method: as §1

NCI-H2087 = test system: NCI-H2087
Summary of the method: as §1

201T = test system: 201T
Summary of the method: as §1

NCI-H520 = test system: NCI-H520
Summary of the method: as §1

HCC-827 = test system: HCC-827
Summary of the method: as §1

NCI-H322M = test system: NCI-H322M
Summary of the method: as §1

NCI-H661 = test system: NCI-H661
Summary of the method: as §1

NCI-H23 = test system: NCI-H23
Summary of the method: as §1

`NC(=O)Nc1cc(-c2cccc(F)c2)sc1C(=O)N[C@H]1CCCNC1` [AZD7762] + CC(C)C[C@H](NC(=O)[C@H](Cc1ccccc1)NC(=O)c1cnccn1)B(O)O [Bortezomib] (partner 0.002 µM) showed a relative viability (HCC-78; first compound 0.1 µM) of 0.526, a relative viability (HCC-78; first compound 0.3162 µM) of 0.62 and a relative viability (HCC-78; first compound 1 µM) of 0.391. For the same compound, the relative viability (NCI-H647; first compound 0.01 µM) was 1.15, the relative viability (NCI-H647; first compound 0.03162 µM) was 1.08 and the relative viability (NCI-H647; first compound 0.1 µM) was 0.919. For the same compound, the relative viability (NCI-H647; first compound 0.3162 µM) was 0.634, the relative viability (NCI-H647; first compound 1 µM) was 0.0894 and the relative viability (NCI-H650; first compound 0.01 µM) was 0.851. For the same compound, the relative viability (NCI-H650; first compound 0.03162 µM) was 0.892, the relative viability (NCI-H650; first compound 0.1 µM) was 0.772 and the relative viability (NCI-H650; first compound 0.3162 µM) was 0.687. The relative viability (NCI-H650; first compound 1 µM) was 0.767, the relative viability (H3255; first compound 0.01 µM) was 0.818 and the relative viability (H3255; first compound 0.03162 µM) was 0.852. The relative viability (H3255; first compound 0.1 µM) was 0.734, the relative viability (H3255; first compound 0.3162 µM) was 0.609 and the relative viability (H3255; first compound 1 µM) was 0.59. It also gave a relative viability (COR-L 105; first compound 0.01 µM) of 0.904, a relative viability (COR-L 105; first compound 0.03162 µM) of 0.803 and a relative viability (COR-L 105; first compound 0.1 µM) of 0.836. It also gave a relative viability (COR-L 105; first compound 0.3162 µM) of 0.389, a relative viability (COR-L 105; first compound 1 µM) of 0.356 and a relative viability (NCI-H2087; first compound 0.01 µM) of 0.88. For the same compound, the relative viability (NCI-H2087; first compound 0.03162 µM) was 0.851, the relative viability (NCI-H2087; first compound 0.1 µM) was 0.792 and the relative viability (NCI-H2087; first compound 0.3162 µM) was 0.972. It also gave a relative viability (NCI-H2087; first compound 1 µM) of 1.01, a relative viability (201T; first compound 0.01 µM) of 1.09 and a relative viability (201T; first compound 0.03162 µM) of 1.12. The relative viability (201T; first compound 0.1 µM) was 1.12, the relative viability (201T; first compound 0.3162 µM) was 1.12 and the relative viability (201T; first compound 1 µM) was 1.19. The relative viability (NCI-H520; first compound 0.01 µM) was 0.471, the relative viability (NCI-H520; first compound 0.03162 µM) was 0.659 and the relative viability (NCI-H520; first compound 0.1 µM) was 0.525. For the same compound, the relative viability (NCI-H520; first compound 0.3162 µM) was 0.27, the relative viability (NCI-H520; first compound 1 µM) was 0.289 and the relative viability (HCC-827; first compound 0.01 µM) was 1.02. For the same compound, the relative viability (HCC-827; first compound 0.03162 µM) was 1.05, the relative viability (HCC-827; first compound 0.1 µM) was 1.16 and the relative viability (HCC-827; first compound 0.3162 µM) was 1.08. It also gave a relative viability (HCC-827; first compound 1 µM) of 0.929, a relative viability (NCI-H322M; first compound 0.01 µM) of 1.09 and a relative viability (NCI-H322M; first compound 0.03162 µM) of 1.26. The relative viability (NCI-H322M; first compound 0.1 µM) was 1.36, the relative viability (NCI-H322M; first compound 0.3162 µM) was 1.39 and the relative viability (NCI-H322M; first compound 1 µM) was 1.33. It also gave a relative viability (NCI-H661; first compound 0.01 µM) of 0.828, a relative viability (NCI-H661; first compound 0.03162 µM) of 0.938 and a relative viability (NCI-H661; first compound 0.1 µM) of 0.766. For the same compound, the relative viability (NCI-H661; first compound 0.3162 µM) was 0.681, the relative viability (NCI-H661; first compound 1 µM) was 0.382 and the relative viability (NCI-H23; first compound 0.01 µM) was 1.26. The relative viability (NCI-H23; first compound 0.03162 µM) was 0.986, the relative viability (NCI-H23; first compound 0.1 µM) was 0.742 and the relative viability (NCI-H23; first compound 0.3162 µM) was 0.597. The relative viability (NCI-H23; first compound 1 µM) was 0.284.
